PubChem BioAssay (NCI)
Values joined by “and” are separate entries in the source; they are usually repeats but may differ in a detail not shown here. Identical values can stand only once.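 These data come from cells grown in 96-well plates and exposed to compound for 48 hours at five concentrations. At the GI50, growth is halved. TGI: concentration producing complete growth inhibition.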

Assays:
Test in all cases: DTP human tumour cell line panel, 48 h
[1] = system: M14 melanoma
[2] = system: SK-MEL-28 melanoma
[3] = system: CAKI-1 renal
[4] = system: RPMI-8226 leukemia
[5] = system: CCRF-CEM leukemia
[6] = system: MDA-MB-231 breast
[7] = system: ACHN renal
[8] = system: K-562 leukemia
[9] = system: SR leukemia
[10] = system: DU-145 prostate

SMILES	GI50 [1]	TGI [1]	GI50 [2]	TGI [2]	GI50 [3]	TGI [3]	GI50 [4]	TGI [4]	GI50 [5]	TGI [5]	GI50 [6] [µM]	TGI [6]	GI50 [7]	TGI [7]	GI50 [8]	TGI [8]	GI50 [9]	TGI [9]	GI50 [10]	TGI [10]
COc1ccc(/C=N/N=C(\[O-])c2ccncc2)cc1F.COc1ccc(/C=N\N=C(/[O-])c2ccncc2)cc1F.[Cu+2]	47.2 µM	> 100 µM	37.9 µM	> 100 µM	38.6 µM	> 100 µM	40.1 µM	> 100 µM	22 µM	68.9 µM	32.4	> 100 µM	39.5 µM	> 100 µM	24.6 µM	> 100 µM	16.8 µM	69.6 µM	32 µM	> 100 µM
Cc1c(C(=O)O[C@H]2[C@@H]3[C@H](C)CC[C@H]3[C@]3(C)O[C@@]2(C2CCCCC2)C[C@H]3OC(=O)CO)ccc2ccccc12	7.92 µM	16.7 µM	8.44 µM	15.8 µM	0.244 µM	6.82 µM	8.89 µM	20.6 µM	9.13 µM	20.9 µM	8	16.7 µM	0.0589 µM	0.766 µM	11 µM	27 µM	7.36 µM	18.3 µM	7.77 µM	14.6 µM
O=C(CCl)Nc1cc(O)c2c(c1)C(=O)c1cccc(O)c1C2=O	1.25 µM	3.45 µM	2.79 µM	8.95 µM	1.56 µM	2.93 µM	2.17 µM	6.39 µM	0.314 µM	3.24 µM	1.91	5.88 µM	1.55 µM	2.98 µM	0.353 µM	4.22 µM	0.346 µM	2.86 µM	1.56 µM	2.94 µM
C=CCCC(=O)N1C=CC(=O)[C@H](O)[C@@H]1/C=C/c1ccccc1	5.17 µM	16.8 µM	17.4 µM	> 32.5 µM	25.1 µM	> 32.5 µM	15.6 µM	> 32.5 µM	5.61 µM	> 32.5 µM	18.6	> 32.5 µM	5.27 µM	> 32.5 µM	9.3 µM	> 32.5 µM	4.28 µM	> 32.5 µM	10.4 µM	> 32.5 µM
Cc1cc(S(=O)(=O)Nc2nc3cc(Cl)ccc3o2)c(SCc2ccccc2)cc1Cl	22.1 µM	43.9 µM	27.3 µM	75.1 µM	22.9 µM	49 µM	20.3 µM	66.2 µM	3.53 µM	16.2 µM	24.2	50.7 µM	18.5 µM	34.9 µM	46.2 µM	> 100 µM	46 µM	> 100 µM	22.4 µM	45.9 µM
COc1cc2c(cc1OC)-c1ncc3cc4c(cc3c1C2)OCO4	19.6 µM	82.5 µM	> 100 µM	> 100 µM	38.5 µM	> 100 µM	5.57 µM	> 100 µM	6.36 µM	21.4 µM	> 100	> 100 µM	> 100 µM	> 100 µM	19 µM	> 100 µM	2.7 µM	15.3 µM	25.3 µM	53.6 µM
CCOc1cc(C(C)(C)C)ccc1C1=N[C@@](C)(c2ccc(Cl)cc2)[C@@](C)(c2ccc(Cl)cc2)N1C(=O)N1CCN(CCS(C)(=O)=O)CC1	3.75 µM	14.6 µM	3.75 µM	14.3 µM	0.81 µM	6.48 µM	2.49 µM	6.77 µM	2.6 µM	7.45 µM	2.31	7.61 µM	0.45 µM	2.56 µM	3.9 µM	21.7 µM	0.198 µM	5.26 µM	4.85 µM	16.1 µM
CN(C)CCNc1nc2ccccc2c2c(=O)c3ccccc3sc12	1.86 µM	3.62 µM	2.08 µM	3.98 µM	3.11 µM	14.5 µM	2.42 µM	6.35 µM	1.92 µM	4.31 µM	1.34	3.64 µM	1.61 µM	4.3 µM	1.52 µM	3.77 µM	1.66 µM	4.69 µM	2.31 µM	6.83 µM
CCCn1c(N)c(C(=O)CNc2ccc(I)cc2)c(=O)[nH]c1=O	> 100 µM	> 100 µM	> 100 µM	> 100 µM	6.53 µM	> 100 µM	0.51 µM	> 100 µM	0.543 µM	> 100 µM	24.5	> 100 µM	8.69 µM	> 100 µM		> 100 µM	0.378 µM	28.3 µM	7.12 µM	> 100 µM
O=C(Nc1cc(-c2cccnc2)nc(NCCCN2CCOCC2)n1)c1cc(Br)cc(C(F)(F)F)c1	1.67 µM	3.32 µM	1.73 µM	3.48 µM	2.53 µM	10.7 µM	3.15 µM	9.69 µM	3.54 µM	12.9 µM	1.79	3.93 µM	3.04 µM	11.3 µM	2.8 µM	21.7 µM	2.6 µM	41.7 µM	6.7 µM	19.1 µM
C#Cc1cc2c(N)c(C(=O)c3cc(OC)c(OC)c(OC)c3)[nH]c2cc1OC	0.521 µM	> 100 µM	19.3 µM	> 100 µM	0.573 µM	> 100 µM	1.84 µM	20 µM	0.63 µM	> 100 µM	5.13	> 100 µM	0.574 µM	> 100 µM	0.462 µM	> 100 µM	0.381 µM	> 100 µM	1.2 µM	> 100 µM
CCCCCCNC(=O)Oc1ccc(/C(=C(\C)c2ccccc2)c2ccc(OCCN(CC)CC)cc2)cc1	1.11 µM	2.38 µM	3.12 µM	9.3 µM	2.74 µM	8.92 µM	2.32 µM	9.71 µM	2.22 µM	11.6 µM	5.08	11.4 µM	5.99 µM	12.2 µM	1.36 µM	5.31 µM	1.09 µM	3.18 µM	7.45 µM	14.6 µM
COc1ccc(-c2c(N)n[nH]c2-c2cc(OC)c(OC)c(OC)c2)cc1	0.135 µM	> 100 µM	5.57 µM	> 100 µM	0.381 µM	> 100 µM	0.331 µM	22.5 µM	0.238 µM	> 100 µM	0.56	> 100 µM	2.03 µM	> 100 µM	0.043 µM	> 100 µM	0.0308 µM	29.1 µM	0.272 µM	
O=C(O)C(=O)CBr	> 89.1 µM and 44 µM	> 100 µM	> 42.4 µM and 16.6 µM	> 62.8 µM and 32.2 µM	> 32.5 µM and 14.7 µM	> 47.3 µM and 28 µM	> 48.9 µM and 26.8 µM	> 73.5 µM and 55.6 µM	14.4 µM and 7.12 µM	> 52.2 µM and 38.6 µM	> 100	> 100 µM	> 35.8 µM and 16.3 µM	> 53.9 µM and 31.6 µM	> 22.2 µM and 23.8 µM	> 68.2 µM and 59.1 µM	> 21.1 µM and 25.8 µM	> 64.8 µM and 71.1 µM	> 61.9 µM and 17 µM	> 100 µM and 31.4 µM
COc1cc(/C=N\O)nc(-c2ccccn2)c1		> 45 µM		> 100 µM		28 µM		> 76.8 µM		> 100 µM		> 100 µM		> 100 µM		> 100 µM		0.453 µM		> 100 µM
O=C(c1ccccc1)C1C(C(=O)c2ccccc2)C(c2ccccc2)N(c2ccccc2)C1c1ccccc1 (stereo not drawn)		> 100 µM		> 100 µM		> 100 µM		> 100 µM		> 100 µM		> 100 µM		> 100 µM		> 100 µM		> 100 µM		> 100 µM
N=C(N)SCCc1ccccn1		> 100 µM		> 100 µM		> 100 µM		> 100 µM		> 100 µM		> 100 µM		> 100 µM		> 100 µM		> 100 µM		> 100 µM
CCCCCc1c(C)[nH]c(/C=C2\N=C(c3ccc[nH]3)C=C2OCc2ccccc2)c1C	0.0296 µM and 0.0252 µM	0.0823 µM and 0.0748 µM	0.105 µM and 0.0459 µM	1.05 µM and 0.267 µM	0.0498 µM and 0.0269 µM		0.0343 µM and 0.0301 µM	0.235 µM and 0.317 µM	0.0261 µM and 0.0162 µM		0.0244	0.257 µM and 0.0768 µM	0.0514 µM and 0.0324 µM	0.941 µM and 0.75 µM	0.0372 µM and 0.0448 µM		0.0226 µM and 0.025 µM		0.0581 µM and 0.0366 µM	1.62 µM and 1.08 µM
ClCC#CCSc1ncnc2c1ncn2CC#CCCl	1.47 µM	3.13 µM	1.61 µM	3.14 µM	1.15 µM	3.74 µM	2.03 µM	6.38 µM	1.8 µM	15.2 µM	1.5	3.55 µM	1.98 µM	5.5 µM	3.15 µM	40.4 µM	0.432 µM	13.8 µM	1.79 µM	4.49 µM
CCOC(=O)Cc1csc(NC(=O)COC(=O)c2ccc(OC)cc2)n1	> 100 µM	> 100 µM	> 100 µM	> 100 µM	> 100 µM	> 100 µM	12.5 µM	33.5 µM	11.1 µM	31.5 µM	> 78.3	> 100 µM	> 100 µM	> 100 µM	1.16 µM	> 60.9 µM	6.04 µM		57.2 µM	> 100 µM
CC1(C)[C@@H](OC(N)=O)C=C[C@]2(C=O)[C@H]3CC[C@]4(C)[C@@H](c5ccc(=O)oc5)[C@@H](Cl)C[C@]4(O)C3=CC[C@@H]12	0.00544 µM	0.0124 µM	0.00642 µM	0.0156 µM	0.00446 µM	0.00846 µM	0.00719 µM	0.023 µM	0.00384 µM	0.0117 µM	0.00899	0.0492 µM	< 0.0025 µM	0.00649 µM	0.00668 µM	0.0197 µM	0.00566 µM	0.0154 µM	0.0041 µM	0.00785 µM
CN1CCN(CCOc2ccc(-c3cnc4c(-c5ccc(F)cc5)cnn4c3)cc2)CC1	1.96 µM	3.7 µM	1.87 µM	3.62 µM	1.52 µM	2.89 µM	1.67 µM	4.67 µM	1.55 µM	3.82 µM	1.57	3.07 µM	1.42 µM	2.73 µM	0.365 µM	2.3 µM	2.07 µM	10.9 µM	1.64 µM	3.16 µM
Cn1ncc(-c2ccc3c(=O)[nH]nc(CN)c3c2)c1-c1c(F)cc2ccccc2c1C#N	6.97 µM	21.1 µM	10.6 µM	23 µM	5.53 µM	19 µM	4.78 µM	27.4 µM	10.7 µM	57.3 µM	8.53	23.4 µM	4.07 µM	16.5 µM	3.41 µM	38.3 µM	1.1 µM	13.1 µM	8.59 µM	21.1 µM
Cc1cc(O)c(C(c2ccncc2)c2c(O)cc(C)[nH]c2=O)c(=O)[nH]1		> 100 µM		> 100 µM		> 100 µM		> 100 µM		> 100 µM		> 100 µM		> 100 µM		> 100 µM		> 100 µM		> 100 µM
OC(COc1cccc2ccccc12)CN1CCN(c2ccccc2Cl)CC1 (stereo not drawn)	14.3 µM	29.4 µM	14.5 µM	27.9 µM	7.23 µM	22.7 µM	13.2 µM	38.3 µM	11.4 µM	69.1 µM	10.8	25.5 µM	13.9 µM	27.5 µM	4.58 µM	17.6 µM	13.5 µM	40.4 µM	14.6 µM	28.5 µM
O=C(Nc1cccc(C(F)(F)F)c1)c1cc(Br)cc(Br)c1O		> 10 µM		> 10 µM		6.6 µM		5.86 µM		> 10 µM		> 10 µM		9.29 µM		7.18 µM		> 10 µM		> 10 µM
O=C1c2ccccc2-c2c1c1ccccc1c(=O)n2-c1ccccc1		> 100 µM		> 100 µM		34.7 µM		> 100 µM		> 100 µM		32.4 µM		17.1 µM		> 100 µM		> 100 µM		> 100 µM
